# In patent US12180137B1, “Solid forms of enantiopure deuterium-enriched bupropion and methods of use thereof” (DeuteRx, LLC, priority 2024, dated 2024):
# Counter-ions that a name gives are not always drawn.
# Experiment: Particle size distribution by laser diffraction (Malvern Mastersizer 3000, wet dispersion)
# Format: physicochemical
# Conditions: wet dispersion in Isopar G, average of three consecutive measurements
# Protocol: Particle size distribution was analyzed using laser diffraction. The apparatus used was a Malvern Mastersizer 3000 equipped with a Hydro 3000S cell for wet dispersion measurements. The measuring range was 0.01-3500 μm, the dispersant used was Isopar G (dispersant RI 1.42). The scattering model used was Mie (material RI 1.50, AI 0.10). The cell was cleaned, filled with dispersant, aligned and the background measured (30 sec. for red light, 10 seconds for blue light). The pump speed was set at 2800 rpm. About 100 mg of the sample were dispersed in 0.5 ml of 2% w/w soy lecithin solution in isopar G, stirred gently with a glass rod and brought to 10 ml with isopar G. The suspension was sonicated for about a minute, then added dropwise to the measurement cell until an obscuration of 10-20% was obtained. The sample was then measured for 20 seconds with red light and 10 seconds with blue light. The results given, expressed in Dv(10), Dv(50) and Dv(90) are the average of three consecutive measurements (Table 3).
Particle size distribution Dv(10) [μm],Particle size distribution Dv(50) [μm],Particle size distribution Dv(90) [μm],Compound
4.9,64,208,CC(NC(C)(C)C)C(=O)c1cccc(Cl)c1 (racemic) [Bupropion HCl]
7.1,31,179,[2H]N(C(C)(C)C)[C@@]([2H])(C)C(=O)c1cccc(Cl)c1 [Compound 101]
